# Measured values from patent US20180099931A1 (AbbVie S.à.r.l., priority 2016, published 2018).
# Like-named read-outs stand apart in the source and are kept apart here.
# Target: T1, F508delCFTR (Homo sapiens, UniProt P13569, DEL508-508)
# T1 construct: expressed in transfected cells; host or cells: CFBE41o- human lung-derived epithelial cells (CFBE4lo-F508delCFTR-HRP), doxycycline-inducible
# Test: Cell Surface Expression-Horse Radish Peroxidase (CSE-HRP) Assay;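 on Maximum % activity (with co-corrector): co-corrector and positive control are both the same reference corrector at 2 µM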;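 on Maximum % activity (without co-corrector): percent of the 2 µM on-plate positive control corrector response above DMSO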
# Format: cell-based
# Settings: for Maximum % activity (with co-corrector) / Emax: maximum at any tested concentration, normalized to on-plate positive control; for Emax: read-out: Maximum % activity (without co-corrector)
# [1] = CSE-HRP, test compound without co-corrector, read-out: EC50 (without co-corrector)
# [2] = CSE-HRP, with co-corrector (2 μM of 3-[(2R,4R)-4-({[1-(2,2-difluoro-1,3-benzodioxol-5-yl)cyclopropyl]carbonyl}amino)-7-methoxy-3,4-dihydro-2H-chromen-2-yl]benzoic acid), read-out: EC50 (with co-corrector)
# [3] = CSE-HRP, with co-corrector (2 μM)
# [4] = test compound without co-corrector, read-out: EC50 (without co-corrector)
# [5] = with co-corrector (2 μM of 3-[(2R,4R)-4-({[1-(2,2-difluoro-1,3-benzodioxol-5-yl)cyclopropyl]carbonyl}amino)-7-methoxy-3,4-dihydro-2H-chromen-2-yl]benzoic acid), read-out: EC50 (with co-corrector)
# [6] = test compound without co-corrector
# [7] = with co-corrector (2 μM of 3-[(2R,4R)-4-({[1-(2,2-difluoro-1,3-benzodioxol-5-yl)cyclopropyl]carbonyl}amino)-7-methoxy-3,4-dihydro-2H-chromen-2-yl]benzoic acid)
# T1 sequence (P13569 with tags, fused parts or gaps DEL508-508): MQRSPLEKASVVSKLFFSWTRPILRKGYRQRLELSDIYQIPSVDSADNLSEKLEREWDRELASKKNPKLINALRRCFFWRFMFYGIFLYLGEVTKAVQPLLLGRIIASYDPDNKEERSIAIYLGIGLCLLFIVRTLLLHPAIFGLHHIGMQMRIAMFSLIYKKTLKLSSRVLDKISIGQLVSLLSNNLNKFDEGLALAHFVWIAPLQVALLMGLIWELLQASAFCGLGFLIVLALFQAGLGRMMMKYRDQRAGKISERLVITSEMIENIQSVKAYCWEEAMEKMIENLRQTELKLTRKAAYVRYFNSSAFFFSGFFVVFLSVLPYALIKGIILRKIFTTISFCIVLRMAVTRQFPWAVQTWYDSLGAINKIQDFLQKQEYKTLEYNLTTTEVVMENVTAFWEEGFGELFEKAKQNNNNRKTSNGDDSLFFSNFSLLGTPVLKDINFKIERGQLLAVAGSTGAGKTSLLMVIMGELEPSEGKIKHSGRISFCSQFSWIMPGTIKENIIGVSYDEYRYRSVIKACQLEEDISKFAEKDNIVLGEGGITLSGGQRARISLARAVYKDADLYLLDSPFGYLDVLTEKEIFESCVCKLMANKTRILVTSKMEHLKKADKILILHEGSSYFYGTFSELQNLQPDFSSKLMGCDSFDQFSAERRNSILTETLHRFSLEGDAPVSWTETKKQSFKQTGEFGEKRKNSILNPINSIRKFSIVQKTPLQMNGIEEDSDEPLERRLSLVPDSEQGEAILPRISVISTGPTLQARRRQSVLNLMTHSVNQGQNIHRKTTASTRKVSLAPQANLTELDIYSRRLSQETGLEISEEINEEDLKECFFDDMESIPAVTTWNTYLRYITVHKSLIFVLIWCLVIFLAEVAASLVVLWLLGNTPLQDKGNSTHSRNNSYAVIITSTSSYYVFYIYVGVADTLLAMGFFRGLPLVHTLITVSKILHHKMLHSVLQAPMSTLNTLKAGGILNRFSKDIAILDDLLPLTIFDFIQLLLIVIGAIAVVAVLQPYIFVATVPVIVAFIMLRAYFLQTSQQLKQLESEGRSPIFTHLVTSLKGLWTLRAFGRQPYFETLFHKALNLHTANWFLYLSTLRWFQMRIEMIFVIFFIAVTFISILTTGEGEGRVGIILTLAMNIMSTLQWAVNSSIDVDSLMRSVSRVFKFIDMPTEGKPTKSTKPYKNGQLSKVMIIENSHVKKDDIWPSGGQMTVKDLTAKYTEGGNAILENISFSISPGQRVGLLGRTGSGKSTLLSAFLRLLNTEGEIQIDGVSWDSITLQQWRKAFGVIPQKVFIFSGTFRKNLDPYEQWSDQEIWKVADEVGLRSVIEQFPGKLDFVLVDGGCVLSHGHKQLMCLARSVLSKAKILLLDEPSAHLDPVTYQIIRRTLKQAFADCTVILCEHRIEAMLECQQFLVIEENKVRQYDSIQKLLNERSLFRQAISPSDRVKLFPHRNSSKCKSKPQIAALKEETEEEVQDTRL
EC50 [1],EC50 [2],Maximum % activity (with co-corrector) [3],"Emax (CSE-HRP, without co-corrector)",EC50 [4],EC50 [5],Maximum % activity (with co-corrector) (with co-corrector (2 μM)),Emax (without co-corrector),Emax [6],Maximum % activity (with co-corrector) [7],SMILES
1000 to 10000 nM,1000 to 10000 nM,+++ (≥350),> 200%,,,,,,,COc1ccc(C(C)C)cc1CN[C@@H]1[C@@H](C(C)(C)C)[C@H](C(=O)O)N(C(=O)C2CCCCC2)[C@@H]1c1ccccc1 (racemic) [II-73]
,,,,1000 to 10000 nM,1000 to 10000 nM,+++ (≥350),> 200%,,,"COc1ccc(C(C)(C)C)cc1CN[C@H]1[C@H](C(C)(C)C)[C@@H](C(=O)O)N(C(=O)C2CCCN(C)C2=O)[C@H]1c1ccccc1 (single isomer, unassigned) [Example I-191]"
1000 to 10000 nM,1000 to 10000 nM,+++ (≥350),> 200%,,,,,,,COc1ccc(C(C)(C)C)cc1CN[C@H]1[C@H](C(C)(C)C)[C@@H](C(=O)O)N(C(=O)Cc2cccc(O)c2)[C@H]1c1ccccc1 [II-196]
,,,,1000 to 10000 nM,1000 to 10000 nM,+++ (≥350),100 to 200%,,,COc1nc(C(C)(C)C)ccc1CN[C@H]1[C@H](C(C)(C)C)[C@@H](C(=O)O)N(C(=O)C2CCCCC2)[C@H]1c1cccnc1OC [Example I-230]
1000 to 10000 nM,1000 to 10000 nM,++ (≥150 and <350),< 100%,,,,,,,COc1ccc(C#N)cc1CN[C@@H]1[C@@H](C(C)(C)C)[C@H](C(=O)O)N(C(=O)C2CCCCC2)[C@@H]1c1ccccc1 (racemic) [II-71]
,,,,1000 to 10000 nM,1000 to 10000 nM,,,> 200%,+++ (≥350),COc1ccc(C(C)(C)C)cc1CN[C@H]1[C@H](C(C)(C)C)[C@@H](C(=O)O)N(C(=O)C2CCC(F)(F)C2)[C@H]1c1ccccc1 (stereo partly drawn) [II-334]
1000 to 10000 nM,< 1000 nM,+++ (≥350),> 200%,,,,,,,COc1nc2ccccc2cc1CN[C@H]1[C@H](C(C)(C)C)[C@@H](C(=O)O)N(C(=O)OC(C)C)[C@H]1c1ccccc1C(C)C [Example I-250]
1000 to 10000 nM,1000 to 10000 nM,++ (≥150 and <350),100 to 200%,,,,,,,Cc1ccc(CN[C@H]2[C@H](C(C)(C)C)[C@@H](C(=O)O)N(C(=O)C3CCCCC3)[C@H]2c2ccccc2)c(C)c1 [II-131]
,,,,< 1000 nM,< 1000 nM,+++ (≥350),> 200%,,,"COc1ccc(C(C)(C)C)cc1CN[C@H]1[C@H](C(C)(C)C)[C@@H](C(=O)O)N(C(=O)C2Cc3ccccc3O2)[C@H]1c1ccccc1 (single isomer, unassigned) [Example 28, (2S,3S,4S,5S)-3-tert-butyl-4-{[(5-tert-butyl-2-methoxyphenyl)methyl]amino}-1-[(2S*)-2,3-dihydro-1-benzofuran-2-carbonyl]-5-phenylpyrrolidine-2-carboxylic acid]"
,,,,< 1000 nM,< 1000 nM,+++ (≥350),> 200%,,,"COc1ccc(C2(C)CCC2)cc1CN[C@H]1[C@H](C(C)(C)C)[C@@H](C(=O)O)N(C(=O)[C@@H]2CCCCO2)[C@H]1c1ccccc1C [Example 109, (2S,3S,4S,5S)-3-tert-butyl-4-({[2-methoxy-5-(1-methylcyclobutyl)phenyl]methyl}amino)-5-(2-methylphenyl)-1-[(2S)-oxane-2-carbonyl]pyrrolidine-2-carboxylic acid]"
1000 to 10000 nM,1000 to 10000 nM,++ (≥150 and <350),< 100%,,,,,,,CC(C)(C)c1cc(CN[C@H]2[C@H](C(C)(C)C)[C@@H](C(=O)O)N(C(=O)C3CCCCC3)[C@H]2c2ccccc2)cc(C(C)(C)C)c1 [II-133]
,,,,> 10000 nM,1000 to 10000 nM,++ (≥150 and <350),,< 100%,,CC(C)(C)[C@H]1[C@H](NCc2ccc3c(c2)OCCCO3)[C@H](c2ccccc2)N(C(=O)C2CCCCC2)[C@@H]1C(=O)O [III-129]
,,,,1000 to 10000 nM,1000 to 10000 nM,+++ (≥350),100 to 200%,,,CCc1c(C(=O)N2[C@H](C(=O)O)[C@@H](C(C)(C)C)[C@H](NCc3cc(C(C)(C)C)ccc3OC)[C@@H]2c2ccccc2)cnn1-c1ccc(OC)nn1 [Example I-144]
,,,,1000 to 10000 nM,1000 to 10000 nM,,,100 to 200%,+++ (≥350),COc1ccc(C(C)(C)C)cc1CN[C@H]1[C@H](C(C)(C)C)[C@@H](C(=O)O)N(C(=O)C2CC2(F)F)[C@H]1c1ccccc1 (stereo partly drawn) [II-327]
,,,,1000 to 10000 nM,1000 to 10000 nM,+++ (≥350),< 100%,,,"CC(C)(C)[C@H]1[C@H](NCC2(c3cccc(Cl)c3)CCOCC2)[C@H](c2ccccc2)N(C(=O)C2CCCCC2)[C@@H]1C(=O)O [Example 63, (2S,3S,4S,5S)-3-tert-butyl-4-({[4-(3-chlorophenyl)oxan-4-yl]methyl}amino)-1-(cyclohexanecarbonyl)-5-phenylpyrrolidine-2-carboxylic acid]"
1000 to 10000 nM,1000 to 10000 nM,++ (≥150 and <350),< 100%,,,,,,,CC(C)(C)[C@H]1[C@H](NCc2cc(Cl)ccc2OCC2CC2)[C@H](c2ccccc2)N(C(=O)C2CCCCC2)[C@@H]1C(=O)O [II-139]
1000 to 10000 nM,< 1000 nM,+++ (≥350),100 to 200%,,,,,,,COc1ccc(C(C)(C)C)cc1CN[C@H]1[C@H](C(C)(C)C)[C@@H](C(=O)O)N(C(=O)c2cccc3c2OCC3)[C@H]1c1ccccc1 [II-222]
,,,,1000 to 10000 nM,< 1000 nM,+++ (≥350),> 200%,,,"COc1ncc(C2CCC2)cc1CN[C@H]1[C@H](C(C)(C)C)[C@@H](C(=O)O)N(C(=O)OC(C)C)[C@H]1c1ccccc1C [Example 94, (2S,3S,4S,5S)-3-tert-butyl-4-{[(5-cyclobutyl-2-methoxypyridin-3-yl)methyl]amino}-5-(2-methylphenyl)-1-{[(propan-2-yl)oxy]carbonyl}pyrrolidine-2-carboxylic acid]"
,,,,1000 to 10000 nM,< 1000 nM,+++ (≥350),> 200%,,,"CCCC1(O)CCC(C(=O)N2C(C(=O)O)C(C(C)(C)C)C(NCc3cc(C(C)(C)C)ccc3OC)C2c2ccccc2)CC1 [Example 35, (2S,3S,4S,5S)-3-tert-butyl-4-{[(5-tert-butyl-2-methoxyphenyl)methyl]amino}-1-(cis-4-hydroxy-4-propylcyclohexane-1-carbonyl)-5-phenylpyrrolidine-2-carboxylic acid]"
,,,,1000 to 10000 nM,< 1000 nM,+++ (≥350),> 200%,,,"COc1ncc(C2CCC2)cc1CN[C@H]1[C@H](C(C)(C)C)[C@@H](C(=O)O)N(C(=O)[C@H]2CCCCO2)[C@H]1c1ccccc1C(C)C [Example 72, (2S,3S,4S,5S)-3-tert-butyl-4-{[(5-cyclobutyl-2-methoxypyridin-3-yl)methyl]amino}-1-[(2R)-oxane-2-carbonyl]-5-[2-(propan-2-yl)phenyl]pyrrolidine-2-carboxylic acid]"
1000 to 10000 nM,1000 to 10000 nM,+++ (≥350),100 to 200%,,,,,,,COc1ccc(C(F)(F)F)cc1CN[C@H]1[C@H](C(C)(C)OC)[C@@H](C(=O)O)N(C(=O)C2CCCCC2)[C@H]1c1ccccc1OC [II-295]
,,,,1000 to 10000 nM,< 1000 nM,+++ (≥350),> 200%,,,COc1ccc(C(C)(C)C)cc1CN[C@H]1[C@H](C(C)(C)C)[C@@H](C(=O)O)N(C(=O)C2C3CCCC32)[C@H]1c1cccnc1N(C)C (stereo partly drawn) [Example I-201]
,,,,1000 to 10000 nM,< 1000 nM,,,> 200%,+++ (≥350),COc1ccc(C(C)(C)C)cc1CN[C@H]1[C@H](C(C)(C)C)[C@@H](C(=O)O)N(C(=O)C2COc3c(cccc3OC)C2)[C@H]1c1ccccc1 (stereo partly drawn) [II-402]
1000 to 10000 nM,1000 to 10000 nM,+++ (≥350),> 200%,,,,,,,COc1ccc(C(F)(F)F)cc1CN[C@@H]1[C@@H](C(C)(C)C)[C@H](C(=O)O)N(C(=O)[C@@H]2CCC[C@@H](OC)C2)[C@@H]1c1ccccc1 (racemic) [II-36]
1000 to 10000 nM,1000 to 10000 nM,+++ (≥350),> 200%,,,,,,,COc1ccc(C(C)(C)C)cc1CN[C@H]1[C@H](C(C)(C)C)[C@@H](C(=O)O)N(C(=O)[C@@H]2CCCO2)[C@H]1c1ccccc1C [Example I-261]
,,,,1000 to 10000 nM,1000 to 10000 nM,,,> 200%,+++ (≥350),COc1cc(Cl)ccc1CN[C@@H]1[C@@H](C(C)(C)C)[C@H](C(=O)O)N(C(=O)C2CCCCC2)[C@@H]1c1ccccc1 (racemic) [III-30]
1000 to 10000 nM,1000 to 10000 nM,+++ (≥350),> 200%,,,,,,,COc1ccc(C(F)(F)F)cc1CN[C@@H]1[C@@H](C(C)(C)C)[C@H](C(=O)O)N(C(=O)C2CCCCO2)[C@@H]1c1ccccc1N(C)C (mixture of isomers) [II-20]
